This note sets out measurements from ChEMBL document CHEMBL1145191, “NMR studies reveal structural differences between the gallium and yttrium complexes of DOTA-D-Phe1-Tyr3-octreotide” (J Med Chem, 2005).

The data set can be described thus: Half-life time of the compound. In kind it is ADME.

GaIII-DOTATOC showed a T1/2 of 1.13 h.
